According to ChEMBL document CHEMBL1122903, “Synthesis, in vitro [3H]prazosin displacement, and in vivo activity of 3-aryl-4,5,6,7-tetrahydropyrazolo[4,3-c]pyridines, a new class of antihypertensive agents” (J Med Chem, 1985):

What was measured:
[1] = target: T1, Adrenergic receptor alpha-1 (Rattus norvegicus, UniProt P15823+P23944+P43140); assay: Ability to displace [3H]prazosin from postsynaptic alpha-1 adrenergic receptor of rat in vitro.; format: protein assay
T1 sequence (P15823 whole entry): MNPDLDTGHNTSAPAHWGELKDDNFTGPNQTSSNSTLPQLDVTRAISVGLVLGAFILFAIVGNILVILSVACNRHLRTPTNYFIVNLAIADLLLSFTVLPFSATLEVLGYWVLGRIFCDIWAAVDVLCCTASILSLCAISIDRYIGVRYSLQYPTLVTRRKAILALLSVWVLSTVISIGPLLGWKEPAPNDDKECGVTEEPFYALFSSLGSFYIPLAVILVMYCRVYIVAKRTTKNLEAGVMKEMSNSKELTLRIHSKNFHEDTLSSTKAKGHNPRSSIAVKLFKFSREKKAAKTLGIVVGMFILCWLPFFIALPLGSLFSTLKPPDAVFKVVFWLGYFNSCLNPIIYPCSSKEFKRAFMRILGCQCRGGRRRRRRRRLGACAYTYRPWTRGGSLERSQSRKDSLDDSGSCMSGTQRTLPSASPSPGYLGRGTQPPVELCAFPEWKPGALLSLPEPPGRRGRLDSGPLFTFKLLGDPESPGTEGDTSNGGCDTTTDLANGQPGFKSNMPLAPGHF
T1 sequence (P23944 whole entry): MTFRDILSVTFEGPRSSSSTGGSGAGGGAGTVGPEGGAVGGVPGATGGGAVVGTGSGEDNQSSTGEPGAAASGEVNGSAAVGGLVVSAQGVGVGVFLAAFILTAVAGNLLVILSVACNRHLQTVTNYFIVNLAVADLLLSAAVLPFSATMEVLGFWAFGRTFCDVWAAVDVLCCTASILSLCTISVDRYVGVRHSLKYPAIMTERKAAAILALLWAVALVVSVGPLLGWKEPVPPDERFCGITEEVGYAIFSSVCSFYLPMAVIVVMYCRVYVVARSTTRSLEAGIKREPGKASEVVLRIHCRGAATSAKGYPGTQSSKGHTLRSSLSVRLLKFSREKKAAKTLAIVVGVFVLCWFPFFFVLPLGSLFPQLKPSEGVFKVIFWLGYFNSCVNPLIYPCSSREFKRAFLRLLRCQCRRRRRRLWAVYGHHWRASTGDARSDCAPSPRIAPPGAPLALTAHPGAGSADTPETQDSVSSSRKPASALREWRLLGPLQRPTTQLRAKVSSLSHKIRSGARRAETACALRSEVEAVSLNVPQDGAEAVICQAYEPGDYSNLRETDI
T1 sequence (P43140 whole entry): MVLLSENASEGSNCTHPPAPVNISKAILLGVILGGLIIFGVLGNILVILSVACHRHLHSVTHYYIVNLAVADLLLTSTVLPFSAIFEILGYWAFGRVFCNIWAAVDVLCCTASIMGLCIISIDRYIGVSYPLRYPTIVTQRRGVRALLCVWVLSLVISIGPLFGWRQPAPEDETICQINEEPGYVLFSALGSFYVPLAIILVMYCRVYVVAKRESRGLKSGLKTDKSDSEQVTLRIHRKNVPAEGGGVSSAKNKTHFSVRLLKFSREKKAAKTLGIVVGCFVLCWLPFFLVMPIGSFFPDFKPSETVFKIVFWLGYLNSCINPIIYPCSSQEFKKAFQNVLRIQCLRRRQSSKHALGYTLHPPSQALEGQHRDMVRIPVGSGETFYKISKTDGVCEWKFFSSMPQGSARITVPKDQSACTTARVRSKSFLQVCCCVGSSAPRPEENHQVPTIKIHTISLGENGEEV

Rattus norvegicus [2] = assay: Antihypertensive activity on spontaneously hypertensive rats, when administered orally at a dose 30 mg/kg; format: functional; settings: route oral
Canis familiaris [3] = assay: Systolic blood pressure after 0 hours of oral administration in renal hypertensive dogs at dose 1 mg/kg; format: functional, Canis lupus familiaris
Canis familiaris [4] = assay: Peak effect after 8 hours systolic blood pressure after 3 days of oral administration in renal hypertensive dogs at dose 0.5 mg/kg; format: functional, Canis lupus familiaris, Artery
Canis familiaris [5] = assay: Heart rate after 6 hours of oral administration in renal hypertensive dogs at dose 1 mg/kg; format: functional, Canis lupus familiaris
Canis familiaris [6] = assay: Peak effect after 8 hours on heart rate after 2 day of oral administration in renal hypertensive dogs at dose 0.5 mg/kg; format: functional, Canis lupus familiaris
Canis familiaris [7] = assay: Systolic blood pressure after 4 hours of oral administration in renal hypertensive dogs at dose 1 mg/kg (mean +/- SE for 3 animals /dose); format: functional, Canis lupus familiaris
Canis familiaris [8] = assay: Systolic blood pressure after 4 hours of oral administration in renal hypertensive dogs at dose 0.25 mg/kg; format: functional, Canis lupus familiaris
Canis familiaris [9] = assay: Heart rate after 8 hours of oral administration in renal hypertensive dogs at dose 2 mg/kg; format: functional, Canis lupus familiaris
Canis familiaris [10] = assay: Heart rate after 2 hours of oral administration in renal hypertensive dogs at dose 2 mg/kg; format: functional, Canis lupus familiaris
Canis familiaris [11] = assay: Systolic blood pressure after 6 hours of oral administration in renal hypertensive dogs at dose 2 mg/kg; format: functional, Canis lupus familiaris
Canis familiaris [12] = assay: Systolic blood pressure after 4 hours of oral administration in renal hypertensive dogs at dose 2 mg/kg; format: functional, Canis lupus familiaris
Canis familiaris [13] = assay: Heart rate after 2 hours of oral administration in renal hypertensive dogs at dose 0.25 mg/kg; format: functional, Canis lupus familiaris
Canis familiaris [14] = assay: Heart rate after 6 hours of oral administration in renal hypertensive dogs at dose 2 mg/kg; format: functional, Canis lupus familiaris
Canis familiaris [15] = assay: Systolic blood pressure after 2 hr of oral administration in renal hypertensive dogs at dose 2 mg/kg; format: functional, Canis lupus familiaris
Canis familiaris [16] = assay: Peak effect after 8 hours on heart rate after 1 days of oral administration in renal hypertensive dogs at dose 0.5 mg/kg; format: functional, Canis lupus familiaris
Canis familiaris [17] = assay: Peak effect after 8 hours on systolic blood pressure after 7 days of oral administration in renal hypertensive dogs at dose 0.5 mg/kg; format: functional, Canis lupus familiaris, Artery
Canis familiaris [18] = assay: Systolic blood pressure after 0 hours of oral administration in renal hypertensive dogs at dose 0.25 mg/kg; format: functional, Canis lupus familiaris
Canis familiaris [19] = assay: Heart rate after 0 hours of oral administration in renal hypertensive dogs at dose 2 mg/kg; format: functional, Canis lupus familiaris
Canis familiaris [20] = assay: Systolic blood pressure after 0 hours of oral administration in renal hypertensive dogs at dose 2 mg/kg; format: functional, Canis lupus familiaris
Canis familiaris [21] = assay: Peak effect after 8 hours on systolic blood pressure after 1 day of oral administration in renal hypertensive dogs at dose 0.5 mg/kg; format: functional, Canis lupus familiaris, Artery
Canis familiaris [22] = assay: Peak effect after 8 hours on heart rate after 7 days of oral administration in renal hypertensive dogs at dose 0.5 mg/kg; format: functional, Canis lupus familiaris
Canis familiaris [23] = assay: Systolic blood pressure after 2 hours of oral administration in renal hypertensive dogs at dose 1 mg/kg; format: functional, Canis lupus familiaris
Canis familiaris [24] = assay: Heart rate after 4 hours of oral administration in renal hypertensive dogs at dose 2 mg/kg; format: functional, Canis lupus familiaris
Canis familiaris [25] = assay: Heart rate after 8 hours of oral administration in renal hypertensive dogs at dose 0.25 mg/kg; format: functional, Canis lupus familiaris
Rattus norvegicus [26] = assay: Antihypertensive activity on spontaneously hypertensive rats when administered orally at a dose 50 mg/kg.; format: functional; settings: route oral
Canis familiaris [27] = assay: Peak effect after 8 hours on heart rate after 3 days of oral administration in renal hypertensive dogs at dose 0.5 mg/kg; format: functional, Canis lupus familiaris
Canis familiaris [28] = assay: Heart rate after 6 hours of oral administration in renal hypertensive dogs at dose 0.25 mg/kg; format: functional, Canis lupus familiaris
Canis familiaris [29] = assay: Systolic blood pressure after 8 hours of oral administration in renal hypertensive dogs at dose 2 mg/kg; format: functional, Canis lupus familiaris
Canis familiaris [30] = assay: Heart rate after 8 hours of oral administration in renal hypertensive dogs at dose 1 mg/kg; format: functional, Canis lupus familiaris
Canis familiaris [31] = assay: Peak effect after 8 hours on systolic blood pressure after 2 days of oral administration in renal hypertensive dogs at dose 0.5 mg/kg; format: functional, Canis lupus familiaris, Artery
Canis familiaris [32] = assay: Systolic blood pressure after 6 hours of oral administration in renal hypertensive dogs at dose 1 mg/kg; format: functional, Canis lupus familiaris
Canis familiaris [33] = assay: Systolic blood pressure after 6 hours of oral administration in renal hypertensive dogs at dose 0.25 mg/kg; format: functional, Canis lupus familiaris
Canis familiaris [34] = assay: Heart rate after 4 hours of oral administration in renal hypertensive dogs at dose 0.25 mg/kg; format: functional, Canis lupus familiaris
Canis familiaris [35] = assay: Heart rate after 0 hours of oral administration in renal hypertensive dogs at dose 1 mg/kg; format: functional, Canis lupus familiaris
Canis familiaris [36] = assay: Heart rate after 0 hours of oral administration in renal hypertensive dogs at dose 0.25 mg/kg; format: functional, Canis lupus familiaris
Canis familiaris [37] = assay: Heart rate after 4 hours of oral administration in renal hypertensive dogs at dose 1 mg/kg; format: functional, Canis lupus familiaris
Canis familiaris [38] = assay: Systolic blood pressure after 8 hours of oral administration in renal hypertensive dogs at dose 0.25 mg/kg; format: functional, Canis lupus familiaris
Canis familiaris [39] = assay: Heart rate after 2 hours of oral administration in renal hypertensive dogs at dose 1 mg/kg; format: functional, Canis lupus familiaris
Canis familiaris [40] = assay: Systolic blood pressure after 8 hours of oral administration in renal hypertensive dogs at dose 1 mg/kg; format: functional, Canis lupus familiaris
Canis familiaris [41] = assay: Systolic blood pressure after 2 hours of oral administration in renal hypertensive dogs at dose 0.25 mg/kg; format: functional, Canis lupus familiaris

CCn1nc(-c2ccc(F)cc2)c2c1CCN(C)C2.CS(=O)(=O)O
Ki [1]: 362 nM
Delta p (Rattus norvegicus [2]): -37%

Cl.Fc1ccc(-c2nn(Cc3ccccc3)c3c2CNCC3)cc1
SBP (Canis familiaris [3]): 200 mmHg
SBP (Canis familiaris [4]): 160 mmHg
Heart rate (Canis familiaris [5]): 96 beats min-1
Heart rate (Canis familiaris [6]): 95 beats min-1
SBP (Canis familiaris [7]): 172 mmHg
Ki [1]: 14.7 nM
SBP (Canis familiaris [8]): 200 mmHg
Heart rate (Canis familiaris [9]): 90 beats min-1
Heart rate (Canis familiaris [10]): 107 beats min-1
SBP (Canis familiaris [11]): 155 mmHg
SBP (Canis familiaris [12]): 165 mmHg
Heart rate (Canis familiaris [13]): 112 beats min-1
Heart rate (Canis familiaris [14]): 97 beats min-1
SBP (Canis familiaris [15]): 183 mmHg
Heart rate (Canis familiaris [16]): 100 beats min-1
SBP (Canis familiaris [17]): 155 mmHg
SBP (Canis familiaris [18]): 200 mmHg
Heart rate (Canis familiaris [19]): 110 beats min-1
SBP (Canis familiaris [20]): 203 mmHg
SBP (Canis familiaris [21]): 160 mmHg
Heart rate (Canis familiaris [22]): 95 beats min-1
SBP (Canis familiaris [23]): 198 mmHg
Heart rate (Canis familiaris [24]): 104 beats min-1
Heart rate (Canis familiaris [25]): 109 beats min-1
Delta p (Rattus norvegicus [26]): -31%
Heart rate (Canis familiaris [27]): 105 beats min-1
Heart rate (Canis familiaris [28]): 105 beats min-1
SBP (Canis familiaris [29]): 156 mmHg
Heart rate (Canis familiaris [30]): 93 beats min-1
SBP (Canis familiaris [31]): 155 mmHg
SBP (Canis familiaris [32]): 165 mmHg
SBP (Canis familiaris [33]): 188 mmHg
Heart rate (Canis familiaris [34]): 108 beats min-1
Heart rate (Canis familiaris [35]): 107 beats min-1
Heart rate (Canis familiaris [36]): 110 beats min-1
Heart rate (Canis familiaris [37]): 105 beats min-1
SBP (Canis familiaris [38]): 190 mmHg
Heart rate (Canis familiaris [39]): 109 beats min-1
SBP (Canis familiaris [40]): 165 mmHg
SBP (Canis familiaris [41]): 202 mmHg
